Assays:
[1] = target: T1, Aldo-keto reductase family 1 member C3 (Homo sapiens, UniProt P42330); test: Inhibition of human 17beta HSD5 in HEK cells; format: cell-based, HEK293
T1 sequence (P42330 whole entry): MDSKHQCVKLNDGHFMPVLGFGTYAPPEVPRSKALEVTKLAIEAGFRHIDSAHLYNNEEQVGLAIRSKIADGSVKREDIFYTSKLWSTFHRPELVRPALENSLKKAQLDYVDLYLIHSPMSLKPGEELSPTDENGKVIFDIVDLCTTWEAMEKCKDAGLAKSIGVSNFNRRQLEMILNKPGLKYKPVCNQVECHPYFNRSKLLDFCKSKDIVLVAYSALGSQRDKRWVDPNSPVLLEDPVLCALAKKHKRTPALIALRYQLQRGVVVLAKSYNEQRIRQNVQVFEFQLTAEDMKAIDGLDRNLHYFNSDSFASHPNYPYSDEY

[2] = target: T1, Aldo-keto reductase family 1 member C3; test: Inhibition of human 17beta HSD5 mediated conversion of testosterone to delta-4-androstene-3,17-dione

| SMILES | IC50 [1] [nM] | Ki [2] [nM] |
| --- | --- | --- |
| COCCOc1cc2c(cc1C#N)[C@H]1CC[C@@]3(C)[C@@H](CC[C@@]34CCC(C)(C)C(=O)O4)[C@@H]1CC2 [EM1396] | 13 |  |
| COCCOc1cc2c(cc1OC(N)=O)[C@H]1CC[C@@]3(C)[C@@H](CC[C@@]34CCC(C)(C)C(=O)O4)[C@@H]1CC2 | 9.5 |  |
| CC1(C)CC[C@@]2(CC[C@H]3[C@@H]4CCc5cc(C(N)=O)ccc5[C@H]4CC[C@@]32C)OC1=O | 3.2 | 6.9 |
